{"source": "patent US20040077676A1", "about": "(priority 2003, published 2004)", "key": {"sciatic nerve crush": {"test_system": "sciatic nerve crush", "assay": "Functional recovery in the rat sciatic nerve crush model (semi-quantitative behavioral score)", "assay_type": "in vivo", "settings": "scale 0-4", "experimental": "Nine 6-week-old male Sprague-Dawley rats were anesthetized with 2% halothane, the right sciatic nerve was exposed, and the nerve was crushed twice (for a total of 60 s using a No.7 Dumont jeweler's forceps) at the level of the hip. The crush site was marked by tying a sterile 9-0 suture through the epineurial sheath.\nCompound (Ia) was dissolved in vehicle comprising 30% dimethylsulfoxide (DMSO):70% saline. Three axotomized rats received subcutaneous daily injections either Compound (Ia) (1 or 5 mg/kg) or an equivalent volume of vehicle (30% DMSO in saline) (5ml/kg)\nAnimals were examined daily until the day of perfusion (18 days). The following semi-quantitative scale was used to evaluate the functional recovery of the animals:\n0: paralysis with the foot turned-out upon walking and the toes curved;\n1: ability to right the foot and move the toes;\n2: ability to constantly walk on the foot;\nFor the behavioral analysis, mean values for recovery of function were compared using one-way ANOVA followed by the Newman-Keuls multiple comparisons test for comparison of individual values. For the morphometric analysis, mean values for the number of axons were compared using one-way ANOVA followed by the Newman Keuls multiple comparisons test for comparison of individual values."}, "FKBP12": {"target": "FKBP12 (Homo sapiens, UniProt P62942)", "sequence (P62942 whole entry, species assumed)": "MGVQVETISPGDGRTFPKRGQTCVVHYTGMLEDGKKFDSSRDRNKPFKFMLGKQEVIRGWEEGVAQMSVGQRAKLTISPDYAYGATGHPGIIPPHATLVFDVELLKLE", "assay": "Binding assay to FKBP12", "settings": "in vitro", "experimental": "The binding assay was performed according to a similar manner to that of Tamura, K., et al (Biochemical arid Biophysical Research Communications, Vol. 202, No. 1, 437-499, 1994)."}, "[1]": {"test_system": "Mixed lymphocyte reaction (MLR)", "assay": "Mixed lymphocyte reaction (MLR)", "assay_type": "cell-based", "settings": "for IC50: Lymphocyte, in vitro", "experimental": "MLR test was performed according to a similar manner to that of U.S. Pat. No. 4,929,611"}, "[2]": {"test_system": "Embryonic hippocampal neurons", "assay": "Neurite (axon) lengths in primary embryonic hippocampal neuron cultures", "assay_type": "cell-based, rat", "settings": "10 nM, primary hippocampal cell cultures in rats at 72 hr, mean", "experimental": "Embryonic hippocampal neurons were obtained from rat pups on embryonic day 18.5 (“El8.5”), according to Banker and Cowan (Brain Research, 1977, 126: 397425). Briefly, the hippocampal regions were removed, minced, and incubated in 100 I.U. papain at 37° C. for 45 min, and the cells were resuspended in complete neuronal medium: minimal essential medium without L-glutamine (GIBCO, Grand Island, NY), 1.5 ml/100 ml medium of high glucose minimal essential medium (GIBCO), 0.1 ml/100 ml medium of serum extender (Hito +Tm; Collaborative Research Inc, Lexington, Mass.), glutamine (GIBCO), 5% fetal calf serum (GIBCO). Cells were seeded onto coverslips (500 cells/coverslip) coated with poly-L-lysine. The coverslips were inverted onto dishes that had been precoated with a monolayer of cortical astrocytes. Hippocampal neurons (identified by their characteristic polarity and dendrites) were examined daily and randomly photographed (9-12 frames/coverslip) at 72 h. Axon (defined as the longest process) lengths were measured on photographic prints using a Houston Instrument HI-PAD digitizing tablet connected to an IBM XT computer with appropriate software (Bioquant IV, R & M Biometrics, Nashville, TN); only processes more than three-fold of the cell body length were measured. Data from identically treated coverslips (three or four per group) were not different and therefore were combined."}, "[3]": {"test_system": "SH-SY5Y human neuroblastoma cells", "assay": "Neurite lengths in NGF-treated SH-SY5Y neuroblastoma cells", "assay_type": "cell-based", "settings": "NGF 10 ng/ml alone; SH-SY5Y cells at 168 hr; mean", "experimental": "SH-SY5Y human neuroblastoma cells were maintained in DMEM medium (GIBCO) supplemented with 10% fetal calf serum (SIGMA), 50 I.U./ml of penicillin, and 50μg/ml streptomycin (GIBCO) at 37° C. in 7% CO2. Cells were plated in six-well plates at 15,000 cells/well and treated with 0.4 μM aphidicolin (SIGMA). […] Medium was changed at 96 h and replaced with fresh medium for an additional 72 h (total time, 168 h). Duplicate wells were run in all experiments and the data were averaged for each treatment group. Analysis of neurite lengths in SH-SY5Y neuroblastoma cells:\nFor analysis of process length, cells (20 fields per well) were randomly photographed at 168 h. Neurite lengths were measured on photographic prints using a Houston Instrument HI-PAD digitizing tablet connected to an IBM XT computer with appropriate software (Bioquant IV, R & M Biometrics, Nashville, Tenn.); only those processes greater than two-fold of the cell body length were measured. Data from identically treated wells were not different and were therefore combined."}}, "data": [{"compound": "CO[C@H]1C[C@@H](C)C/C(C)=C/C(CC(C)=O)C(=O)C[C@H](O)[C@@H](C)[C@@H](/C(C)=C/[C@@H]2CC[C@@H](O)[C@H](OC)C2)OC(=O)[C@@H]2CCCCN2C(=O)C(=O)[C@]2(O)OC1[C@@H](OC)C[C@H]2C", "note": "(stereo partly shown) [Compound (Ia)]", "values": [{"measurement": "Functional Score", "setting": "sciatic nerve crush; 1 mg/kg s.c. daily, Day 15", "result": "2.58 ± 0.17"}, {"measurement": "Functional Score", "setting": "sciatic nerve crush; 1 mg/kg s.c. daily, Day 16", "result": "2.83 ± 0.17"}, {"measurement": "Functional Score", "setting": "sciatic nerve crush; 1 mg/kg s.c. daily, Day 17", "result": "3.08 ± 0.22"}, {"measurement": "Functional Score", "setting": "sciatic nerve crush; 5 mg/kg s.c. daily, Day 15", "result": "3.17 ± 0.08"}, {"measurement": "Functional Score", "setting": "sciatic nerve crush; 5 mg/kg s.c. daily, Day 16", "result": "3.50 ± 0.00"}, {"measurement": "Functional Score", "setting": "sciatic nerve crush; 5 mg/kg s.c. daily, Day 17", "result": "3.50 ± 0.00"}, {"measurement": "IC50", "setting": "FKBP12", "result": "< 5", "unit": "nM"}, {"measurement": "IC50", "setting": "[1]", "result": "> 100", "unit": "nM"}, {"measurement": "immunosuppressive activity", "setting": "[1]; conclusion in words from MLR result", "result": "does not have immunosuppressive activity"}]}, {"compound": "C=CC[C@@H]1/C=C(\\C)C[C@H](C)C[C@H](OC)[C@H]2O[C@@](O)(C(=O)C(=O)N3CCCC[C@H]3C(=O)O[C@H](/C(C)=C/[C@@H]3CC[C@@H](O)[C@H](OC)C3)[C@H](C)[C@@H](O)CC1=O)[C@H](C)C[C@@H]2OC", "note": "[Tacrolimus, tacrolimus]", "values": [{"measurement": "Neurite Lengths", "setting": "[2]", "result": "423.4 ± 19.50", "unit": "μm"}, {"measurement": "Neurite Lengths", "setting": "[2]; listed as tacrolimus", "result": "no significant difference"}, {"measurement": "IC50", "setting": "[1]", "result": "< 2", "unit": "nM"}]}, {"compound": "NGF: nerve growth factor, used at 10 ng/ml to induce process outgrowth", "values": [{"measurement": "Neurite Lengths", "setting": "[3]", "result": "198.8 ± 8.991", "unit": "μm"}]}]}
